For data set [1], the system named is patients with cirrhosis. To be noted: administered through the hepatic artery, cited from earlier work.
For data set [2], the system named is patients with early cirrhosis. Particulars: cited from earlier work.
For data set [3], the system named is patient with portopulmonary hypertension. Particulars: one case of portopulmonary hypertension; cited from earlier work.
Data set [4] concerns patients with portopulmonary hypertension. To be noted: cited from earlier work.
Data set [5] deals with adult subjects with a history of cirrhosis and portal hypertension. As to the kind of experiment: Clinical study NCT03827200: portal pressure estimated by Hepatic Venous Pressure Gradient (HVPG). It counts as in vivo, human. How it is done: (§1) In the context of a clinical study (ClinicalTrials.gov Identifier: NCT03827200), ambrisentan was administered to 8 adult subjects with a history of cirrhosis and portal hypertension. […] A liquid formulation of ambrisentan was used, consisting of a solution of propylene glycol:ethanol (50:50 w/w) and ambrisentan at a concentration of 5 mg/mL. The solution was reconstituted prior to administration in water or propylene glycol. All subjects were treated for 14 days. Portal pressure was estimated in this study by means of the Hepatic Vein Pressure Gradient (HVPG), the current gold standard to evaluate the degree of portal hypertension in adults with cirrhosis (as described in Bosch, J., Abraldes, J. G., Berzigotti, A., & Garcia-Pagan, J. C. (2009). The clinical use of HVPG measurements in chronic liver disease. Nature Reviews Gastroenterology & Hepatology, 6(10), 573-582). HVPG was measured at baseline and prior to the first administration of ambrisentan. Post-baseline values for HVPG were obtained at 90 minutes following the administration of the first dose of ambrisentan. After 14 days of treatment, HVPG was determined at trough (prior to the last dose) and 90 minutes following the last dose of ambrisentan. Two dose groups were evaluated in this study. In the high dose group, 4 subjects were administered 50 μg ambrisentan on day 1 subcutaneously, followed by 100 μg of ambrisentan twice a day orally for 13 days, for a total daily dose of 200 μg. On day 14, subjects in the high dose group received a final dose of 50 μg ambrisentan subcutaneously. In the low dose group, 4 subjects were administered 10 μg ambrisentan on day 1 subcutaneously, followed by 14 μg of ambrisentan once a day orally for 13 days. On day 14, subjects in the low dose group received a final dose of 10 μg ambrisentan subcutaneously.
All subjects had portal hypertension as determined by HVPG at baseline (mean 19.7 mmHg, range 9-29 mmHg). […] An initial decrease in HVPG was apparent at 90 minutes post-administration in the low-dose group, and the reduction in HVPG was even larger at day 14 when compared to day 1 (Table 2).

Data set [6] can be described thus: Pharmacokinetic analysis of ambrisentan plasma concentrations in the clinical study. The class given is in vivo, human. To be noted: high dose group. How it is done:
as §1, with “In the high dose group, 4 subjects were administered 50 μg ambrisentan on day 1 subcutaneously, followed by 100 μg of ambrisentan twice a day orally for 13 days, for a total daily dose of 200 μg. On day 14, subjects in the high dose group received a final dose of 50 μg ambrisentan subcutaneously. In the low dose group, 4 subjects were administered 10 μg ambrisentan on day 1 subcutaneously, followed by 14 μg of ambrisentan once a day orally for 13 days. On day 14, subjects in the low dose group received a final dose of 10 μg ambrisentan subcutaneously.” left out

Non-standard residues stand in square brackets, D forms with d. Residues, ends and D or L forms follow the SMILES beside them.

`CC(C)C[C@@H]1NC(=O)[C@@H](C(C)C)NC(=O)[C@@H]2CCCN2C(=O)[C@@H](CC(=O)O)NC(=O)[C@@H](Cc2c[nH]c3ccccc23)NC1=O` [BQ-123] (cyclo(L[dW][dD]P[dV])): the “Reduction of portal pressure as determined by HVPG” value in data set [1] (acute) was 18%. For the same molecule, the “Hepatic artery blood flow” value in data set [1] is on record as “significant increase”. For the same molecule, the “Acute reduction of portal pressure as assessed by HVPG” value in data set [2] is “did not show any acute reduction on portal pressure”.
Regarding `COc1ccccc1Oc1c(NS(=O)(=O)c2ccc(C(C)(C)C)cc2)nc(-c2ncccn2)nc1OCCO` [bosentan], in data set [3], the “Portal pressure as measured by HVPG” value is listed as “decrease” and the Pulmonary pressure entry is given as “decrease”.
Turning to `CCCNS(=O)(=O)Nc1ncnc(OCCOc2ncc(Br)cn2)c1-c1ccc(Br)cc1` [macitentan], in data set [4], the 6-minute walking distance result was “no effect” and the “Portal pressure as determined by HVPG” value is “not showing a significant difference”.
As to `COC(c1ccccc1)(c1ccccc1)[C@H](Oc1nc(C)cc(C)n1)C(=O)O` [ambrisentan], the “Change in HVPG from baseline, percent change, mean” value was −6.4% in data set [5] (dose group 10/14 μg, N=4, Day 1, 90 m after first dose); −14.1% in data set [5] (dose group 10/14 μg, N=4, Day 14, 90 m after last dose); −9.2% in data set [5] (dose group 10/14 μg, N=4, Day 14, trough (0 H)); 4.8% in data set [5] (dose group 50/200 μg, N=4, Day 1, 90 m after first dose); 11.7% in data set [5] (dose group 50/200 μg, N=4, Day 14, 90 m after last dose); 9.2% in data set [5] (dose group 50/200 μg, N=4, Day 14, trough (0 H)). The “Steady-state trough ambrisentan plasma concentration” value in data set [6] (100 μg twice daily orally for 13 days) is recorded as “about 10 ng/mL”. Besides, the concentration at 2 h in data set [6] (human, plasma, subcutaneous, 50 μg at day 14, 2 hours post-administration) was found to be 18 ng/mL.
For `CCCC[C@@H](NC(=O)[C@@H](Cc1cn(C(=O)OC)c2ccccc12)NC(=O)[C@H](CC(C)(C)C)NC(=O)N1[C@H](C)CCC[C@@H]1C)C(=O)O` [BQ-788], the “Acute reduction of portal pressure as assessed by HVPG” value in data set [2] is on record as “did not show any acute reduction on portal pressure”.

(Values after patent US11883400B2, “Treatment of portal hypertension and cirrhosis” (Noorik Biopharmaceuticals AG, priority 2018, dated 2024).)
